The target of test [1] is Epidermal growth factor receptor (Homo sapiens, UniProt P00533). It is filed as functional.
In test [2] the target is Gamma-aminobutyric acid type B receptor subunit 1 (Homo sapiens, UniProt Q9UBS5).
The next test concerns the target T1, Androgen receptor (Homo sapiens, UniProt P10275).
T1 sequence (P10275 whole entry): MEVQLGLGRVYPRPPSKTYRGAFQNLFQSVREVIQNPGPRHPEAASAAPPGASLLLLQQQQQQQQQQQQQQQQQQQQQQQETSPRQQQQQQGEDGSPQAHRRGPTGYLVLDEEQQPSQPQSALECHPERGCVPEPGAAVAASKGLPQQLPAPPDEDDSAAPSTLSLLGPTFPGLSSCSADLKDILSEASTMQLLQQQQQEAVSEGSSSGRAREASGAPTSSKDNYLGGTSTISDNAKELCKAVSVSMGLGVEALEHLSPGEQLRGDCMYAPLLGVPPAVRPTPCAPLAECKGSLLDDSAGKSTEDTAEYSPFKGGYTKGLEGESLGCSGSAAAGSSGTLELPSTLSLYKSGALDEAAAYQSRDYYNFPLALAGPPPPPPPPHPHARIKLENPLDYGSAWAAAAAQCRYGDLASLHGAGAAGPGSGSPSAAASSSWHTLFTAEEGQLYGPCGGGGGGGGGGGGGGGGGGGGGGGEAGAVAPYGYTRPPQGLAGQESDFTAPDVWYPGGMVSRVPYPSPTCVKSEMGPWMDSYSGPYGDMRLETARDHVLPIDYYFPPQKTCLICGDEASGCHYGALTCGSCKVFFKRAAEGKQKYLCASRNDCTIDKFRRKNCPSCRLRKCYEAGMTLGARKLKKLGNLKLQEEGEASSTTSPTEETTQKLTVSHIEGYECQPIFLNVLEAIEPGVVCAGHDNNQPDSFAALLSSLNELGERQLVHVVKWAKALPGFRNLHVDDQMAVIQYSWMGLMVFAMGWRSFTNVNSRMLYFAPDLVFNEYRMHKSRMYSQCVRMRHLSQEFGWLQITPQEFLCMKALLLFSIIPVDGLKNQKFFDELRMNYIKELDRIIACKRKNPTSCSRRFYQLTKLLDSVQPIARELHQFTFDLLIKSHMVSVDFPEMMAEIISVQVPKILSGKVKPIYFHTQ

For test [3], the target named is T2, Amine oxidase [flavin-containing] A (Homo sapiens, UniProt P21397).
T2 sequence (P21397 whole entry): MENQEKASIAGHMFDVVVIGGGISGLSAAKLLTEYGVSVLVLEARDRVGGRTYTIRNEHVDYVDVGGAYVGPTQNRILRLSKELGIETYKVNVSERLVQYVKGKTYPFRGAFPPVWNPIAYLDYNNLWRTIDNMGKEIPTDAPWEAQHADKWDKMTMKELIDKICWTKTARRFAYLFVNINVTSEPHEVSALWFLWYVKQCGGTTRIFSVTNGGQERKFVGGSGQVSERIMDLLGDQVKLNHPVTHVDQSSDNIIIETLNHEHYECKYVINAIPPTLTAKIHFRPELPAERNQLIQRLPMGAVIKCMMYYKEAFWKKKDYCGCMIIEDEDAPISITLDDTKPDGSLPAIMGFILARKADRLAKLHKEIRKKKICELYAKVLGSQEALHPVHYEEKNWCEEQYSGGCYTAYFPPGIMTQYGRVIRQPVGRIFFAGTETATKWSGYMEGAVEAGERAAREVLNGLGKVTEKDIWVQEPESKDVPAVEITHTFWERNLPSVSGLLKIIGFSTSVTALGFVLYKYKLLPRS
The format is functional.

For a further test, the target named is Mu-type opioid receptor (Homo sapiens, UniProt P35372).
Test [4] addresses Prostaglandin G/H synthase 1 (Homo sapiens, UniProt P23219). It is filed as functional.
A further test has as its target T3, Thromboxane A2 receptor (Homo sapiens, UniProt P21731).
T3 sequence (P21731 whole entry): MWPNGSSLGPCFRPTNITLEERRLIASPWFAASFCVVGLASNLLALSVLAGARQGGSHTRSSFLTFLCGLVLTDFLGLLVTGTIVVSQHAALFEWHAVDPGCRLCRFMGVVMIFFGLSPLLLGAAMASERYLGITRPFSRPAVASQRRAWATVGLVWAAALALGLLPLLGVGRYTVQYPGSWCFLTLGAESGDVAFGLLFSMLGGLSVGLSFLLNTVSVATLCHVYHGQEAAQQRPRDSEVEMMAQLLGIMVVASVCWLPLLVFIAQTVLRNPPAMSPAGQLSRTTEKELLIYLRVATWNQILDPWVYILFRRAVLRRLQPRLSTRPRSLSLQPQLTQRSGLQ
The format is functional, cell-based.

In test [5] the target is T4, Histamine H1 receptor (Homo sapiens, UniProt P35367). The format is functional, cell-based.
The target of test [6] is T4, Histamine H1 receptor. The format is functional, cell-based. The source holds these as a separate data set.
In test [7] the target is Voltage-dependent L-type calcium channel subunit alpha-1C (Homo sapiens, UniProt Q13936). It is filed as functional, cell-based.
The target in the next test is T5, Estrogen receptor (Homo sapiens, UniProt P03372).
T5 sequence (P03372 whole entry): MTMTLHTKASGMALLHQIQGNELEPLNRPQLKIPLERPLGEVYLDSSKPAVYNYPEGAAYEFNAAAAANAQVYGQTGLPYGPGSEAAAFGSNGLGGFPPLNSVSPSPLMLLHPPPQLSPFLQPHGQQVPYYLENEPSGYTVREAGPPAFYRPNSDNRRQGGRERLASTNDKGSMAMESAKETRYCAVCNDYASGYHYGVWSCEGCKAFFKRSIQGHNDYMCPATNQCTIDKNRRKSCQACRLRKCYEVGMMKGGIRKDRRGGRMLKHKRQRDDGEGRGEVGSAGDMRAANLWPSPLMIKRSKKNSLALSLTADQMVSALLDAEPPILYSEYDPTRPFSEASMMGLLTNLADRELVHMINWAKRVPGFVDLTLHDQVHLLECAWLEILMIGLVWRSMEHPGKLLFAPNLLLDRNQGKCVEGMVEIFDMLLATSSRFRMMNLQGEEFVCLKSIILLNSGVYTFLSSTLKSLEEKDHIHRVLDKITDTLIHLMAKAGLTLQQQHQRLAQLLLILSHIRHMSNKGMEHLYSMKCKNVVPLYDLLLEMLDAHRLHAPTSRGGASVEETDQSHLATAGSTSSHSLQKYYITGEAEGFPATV

Test [8] has as its target Gamma-aminobutyric acid receptor subunit alpha-1/alpha-2/beta-2/gamma-2 (Homo sapiens, UniProt P14867+P47870+P18507+P47869). The format is functional, cell-based.
The target of another test is D(1A) dopamine receptor (Homo sapiens, UniProt P21728).
Further: assay procedure not described here.

T4 sequence (P35367 whole entry): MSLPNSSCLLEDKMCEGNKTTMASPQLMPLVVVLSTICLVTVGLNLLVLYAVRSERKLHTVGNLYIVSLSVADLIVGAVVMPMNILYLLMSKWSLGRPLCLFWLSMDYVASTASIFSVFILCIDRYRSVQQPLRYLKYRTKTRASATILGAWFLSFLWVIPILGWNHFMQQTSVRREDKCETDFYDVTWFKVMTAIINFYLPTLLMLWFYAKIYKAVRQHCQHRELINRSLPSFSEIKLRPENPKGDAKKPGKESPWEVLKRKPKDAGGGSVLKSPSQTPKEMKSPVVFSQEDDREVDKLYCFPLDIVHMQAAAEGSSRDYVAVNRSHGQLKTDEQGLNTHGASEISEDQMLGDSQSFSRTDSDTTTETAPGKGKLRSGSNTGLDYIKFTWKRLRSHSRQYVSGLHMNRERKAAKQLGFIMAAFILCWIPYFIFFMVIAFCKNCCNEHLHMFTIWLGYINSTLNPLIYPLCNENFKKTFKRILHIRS
Sequence of Gamma-aminobutyric acid receptor subunit alpha-1/alpha-2/beta-2/gamma-2 (P14867 whole entry): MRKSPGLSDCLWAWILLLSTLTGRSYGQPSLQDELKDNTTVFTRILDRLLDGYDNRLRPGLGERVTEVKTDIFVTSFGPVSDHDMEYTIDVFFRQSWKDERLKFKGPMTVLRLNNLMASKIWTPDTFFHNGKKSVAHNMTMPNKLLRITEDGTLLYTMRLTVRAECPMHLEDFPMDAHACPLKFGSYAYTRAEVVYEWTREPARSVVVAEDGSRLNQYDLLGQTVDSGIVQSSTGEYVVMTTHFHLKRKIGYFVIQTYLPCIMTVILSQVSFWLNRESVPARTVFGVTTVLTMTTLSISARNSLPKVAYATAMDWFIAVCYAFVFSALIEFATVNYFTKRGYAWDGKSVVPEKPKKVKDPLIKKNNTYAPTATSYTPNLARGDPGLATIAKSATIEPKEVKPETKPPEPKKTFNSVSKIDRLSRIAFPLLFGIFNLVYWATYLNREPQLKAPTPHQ
Sequence of Gamma-aminobutyric acid receptor subunit alpha-1/alpha-2/beta-2/gamma-2 (P47870 whole entry): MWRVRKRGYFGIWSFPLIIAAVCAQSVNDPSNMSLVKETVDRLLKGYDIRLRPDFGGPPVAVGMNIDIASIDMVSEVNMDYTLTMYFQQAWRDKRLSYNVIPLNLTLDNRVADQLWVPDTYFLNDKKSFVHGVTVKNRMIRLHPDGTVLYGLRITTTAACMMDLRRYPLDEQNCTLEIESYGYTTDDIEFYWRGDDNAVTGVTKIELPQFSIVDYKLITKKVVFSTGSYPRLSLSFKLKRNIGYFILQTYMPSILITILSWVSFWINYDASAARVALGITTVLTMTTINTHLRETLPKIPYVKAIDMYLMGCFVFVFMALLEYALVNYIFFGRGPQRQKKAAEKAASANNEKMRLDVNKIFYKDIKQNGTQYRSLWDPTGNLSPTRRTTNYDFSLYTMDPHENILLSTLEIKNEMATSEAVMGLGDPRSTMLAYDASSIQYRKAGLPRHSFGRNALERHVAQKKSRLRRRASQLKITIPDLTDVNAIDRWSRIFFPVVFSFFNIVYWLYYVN
Sequence of Gamma-aminobutyric acid receptor subunit alpha-1/alpha-2/beta-2/gamma-2 (P18507 whole entry): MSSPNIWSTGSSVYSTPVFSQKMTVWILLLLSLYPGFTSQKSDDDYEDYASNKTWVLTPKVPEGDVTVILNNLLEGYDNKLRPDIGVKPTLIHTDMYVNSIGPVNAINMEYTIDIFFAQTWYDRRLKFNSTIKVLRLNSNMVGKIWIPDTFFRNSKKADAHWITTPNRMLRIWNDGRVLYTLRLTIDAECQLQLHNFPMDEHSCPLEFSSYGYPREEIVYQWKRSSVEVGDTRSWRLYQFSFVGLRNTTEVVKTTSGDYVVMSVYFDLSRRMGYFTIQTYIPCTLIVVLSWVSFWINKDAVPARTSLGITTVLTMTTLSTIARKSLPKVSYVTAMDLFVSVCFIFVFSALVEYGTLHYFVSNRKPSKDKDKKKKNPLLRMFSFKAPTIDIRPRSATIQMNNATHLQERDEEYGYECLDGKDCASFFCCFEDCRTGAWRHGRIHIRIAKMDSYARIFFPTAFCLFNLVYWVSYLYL
Sequence of Gamma-aminobutyric acid receptor subunit alpha-1/alpha-2/beta-2/gamma-2 (P47869 whole entry): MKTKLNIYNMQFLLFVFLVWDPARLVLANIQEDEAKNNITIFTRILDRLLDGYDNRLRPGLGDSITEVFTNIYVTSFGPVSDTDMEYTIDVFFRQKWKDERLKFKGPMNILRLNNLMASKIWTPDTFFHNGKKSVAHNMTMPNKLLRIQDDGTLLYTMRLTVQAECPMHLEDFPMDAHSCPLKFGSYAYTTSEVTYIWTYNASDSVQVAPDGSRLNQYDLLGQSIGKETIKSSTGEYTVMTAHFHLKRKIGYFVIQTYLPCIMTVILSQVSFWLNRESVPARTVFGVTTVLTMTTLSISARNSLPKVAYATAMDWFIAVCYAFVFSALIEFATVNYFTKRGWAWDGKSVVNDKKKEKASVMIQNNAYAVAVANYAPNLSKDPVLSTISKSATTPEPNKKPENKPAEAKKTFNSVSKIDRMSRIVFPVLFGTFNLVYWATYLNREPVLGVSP
Sequence of Epidermal growth factor receptor (P00533 whole entry): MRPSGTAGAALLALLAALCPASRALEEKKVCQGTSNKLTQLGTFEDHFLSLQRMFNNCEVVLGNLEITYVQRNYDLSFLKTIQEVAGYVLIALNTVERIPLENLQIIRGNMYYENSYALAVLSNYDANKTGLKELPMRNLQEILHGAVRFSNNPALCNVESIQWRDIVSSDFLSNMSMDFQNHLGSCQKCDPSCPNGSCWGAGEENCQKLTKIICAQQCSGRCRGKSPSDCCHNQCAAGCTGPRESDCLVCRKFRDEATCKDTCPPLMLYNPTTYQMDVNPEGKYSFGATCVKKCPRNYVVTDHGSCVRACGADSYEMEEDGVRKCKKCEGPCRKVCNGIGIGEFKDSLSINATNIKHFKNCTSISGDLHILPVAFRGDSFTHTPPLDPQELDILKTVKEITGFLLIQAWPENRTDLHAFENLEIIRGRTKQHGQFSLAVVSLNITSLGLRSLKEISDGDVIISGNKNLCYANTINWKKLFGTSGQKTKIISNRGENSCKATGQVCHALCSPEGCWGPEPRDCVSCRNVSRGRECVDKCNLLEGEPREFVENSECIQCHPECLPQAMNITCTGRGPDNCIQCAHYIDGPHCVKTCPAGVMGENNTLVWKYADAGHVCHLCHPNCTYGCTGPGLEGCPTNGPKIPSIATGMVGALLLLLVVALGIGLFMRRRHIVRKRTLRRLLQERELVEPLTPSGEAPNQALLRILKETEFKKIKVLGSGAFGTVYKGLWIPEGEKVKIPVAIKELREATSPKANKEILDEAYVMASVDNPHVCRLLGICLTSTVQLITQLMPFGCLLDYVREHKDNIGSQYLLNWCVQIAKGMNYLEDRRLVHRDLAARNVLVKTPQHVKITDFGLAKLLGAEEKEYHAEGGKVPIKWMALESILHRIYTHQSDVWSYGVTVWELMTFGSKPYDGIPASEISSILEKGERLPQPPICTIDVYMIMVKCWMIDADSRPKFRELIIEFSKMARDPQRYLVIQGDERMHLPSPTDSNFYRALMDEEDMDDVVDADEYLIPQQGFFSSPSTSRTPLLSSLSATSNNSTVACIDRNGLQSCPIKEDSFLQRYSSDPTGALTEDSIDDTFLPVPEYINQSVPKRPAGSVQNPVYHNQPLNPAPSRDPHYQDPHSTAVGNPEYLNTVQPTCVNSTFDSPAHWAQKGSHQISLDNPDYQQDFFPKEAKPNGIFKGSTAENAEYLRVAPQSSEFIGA
Sequence of Prostaglandin G/H synthase 1 (P23219 whole entry): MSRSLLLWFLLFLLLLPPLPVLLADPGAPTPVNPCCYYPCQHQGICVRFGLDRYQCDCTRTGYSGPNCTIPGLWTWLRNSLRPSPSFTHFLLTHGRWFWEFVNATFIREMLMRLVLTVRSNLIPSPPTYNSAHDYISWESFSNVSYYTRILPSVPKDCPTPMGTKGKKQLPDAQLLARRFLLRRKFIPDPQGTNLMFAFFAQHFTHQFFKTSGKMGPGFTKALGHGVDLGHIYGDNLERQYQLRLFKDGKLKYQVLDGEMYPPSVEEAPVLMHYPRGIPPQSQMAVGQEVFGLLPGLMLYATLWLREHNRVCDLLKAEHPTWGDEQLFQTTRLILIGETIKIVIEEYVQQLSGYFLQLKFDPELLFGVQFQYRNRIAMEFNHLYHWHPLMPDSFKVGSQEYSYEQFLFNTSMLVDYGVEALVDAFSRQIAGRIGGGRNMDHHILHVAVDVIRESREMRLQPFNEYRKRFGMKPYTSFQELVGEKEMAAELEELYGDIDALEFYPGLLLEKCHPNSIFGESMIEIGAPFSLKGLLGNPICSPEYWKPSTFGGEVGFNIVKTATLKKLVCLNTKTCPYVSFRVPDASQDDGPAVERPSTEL
Sequence of Mu-type opioid receptor (P35372 whole entry): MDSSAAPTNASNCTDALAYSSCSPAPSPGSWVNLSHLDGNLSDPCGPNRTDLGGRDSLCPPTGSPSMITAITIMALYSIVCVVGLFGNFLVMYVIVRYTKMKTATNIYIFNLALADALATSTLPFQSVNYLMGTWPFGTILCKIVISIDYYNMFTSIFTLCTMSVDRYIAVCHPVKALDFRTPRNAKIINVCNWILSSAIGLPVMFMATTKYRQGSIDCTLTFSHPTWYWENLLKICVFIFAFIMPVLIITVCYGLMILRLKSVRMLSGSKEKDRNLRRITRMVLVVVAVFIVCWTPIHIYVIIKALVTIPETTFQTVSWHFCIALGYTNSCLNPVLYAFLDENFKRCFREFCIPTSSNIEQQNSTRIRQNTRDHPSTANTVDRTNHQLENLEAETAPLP

In general, AC50 refers to the midpoint of the concentration-response curve, whichever way the signal moves. As for `CC(CC1c2ccccc2CCc2ccccc21)CN(C)C` (stereo not drawn) [BUTRIPTYLINE], the AC50 in test [1] is > 30 µM.
`Cc1c(OCC(F)(F)F)ccnc1C[S+]([O-])c1nc2ccccc2[nH]1` (stereo not drawn) [LANSOPRAZOLE]: the AC50 in test [2] is > 10 µM.
Turning to `CO[C@]12C[C@@H](COC(=O)c3cncc(Br)c3)CN(C)[C@@H]1Cc1cn(C)c3cccc2c13` [NICERGOLINE], the AC50 is > 30 µM on Androgen receptor; > 30 µM in test [3]; 2.38 µM on Mu-type opioid receptor; > 30 µM in test [4]; 7.6 µM at Thromboxane A2 receptor.
Take `NC(=O)CN1CC(O)CC1=O` (stereo not drawn) [OXIRACETAM]: the AC50 on Histamine H1 receptor [5] and on Histamine H1 receptor [6] was > 30 µM throughout.
As to THIMEROSAL, the AC50 in test [7] is > 50 µM; on Estrogen receptor it was > 30 µM; in [8], > 30 µM; on D(1A) dopamine receptor, 10 µM.

These data come from ChEMBL document CHEMBL5291721, “A preclinical secondary pharmacology resource illuminates target-adverse drug reaction associations of marketed drugs” (Nat Commun, 2023).
